In patent US8097224B2, “Apparatuses and media for drug elution and methods for making and using them” (Medtronic MiniMed, Inc., priority 2007, dated 2012):

Details: 0.022 mg/mL
Experimental: To evaluate buffers with different pH, eleven milligrams of Dexamethasone Acetate was dissolved in 500 mL of media (different pH adjusted buffers).

Question: For CC(=O)OCC(=O)[C@@]1(O)[C@H](C)C[C@H]2[C@@H]3CCC4=CC(=O)C=C[C@]4(C)[C@@]3(F)[C@@H](O)C[C@@]21C [Dexamethasone Acetate], which “stability with respect to pH (order)” value is on record?
Answer: The value was “pH 3>pH 5≅acetate pH 5.7>water>pH 7>pH 9”.
